Results taken from patent publication US7238701B2, “Substituted tetrahydrobenzothienopyrimidinamine compounds useful for treating hyper-proliferative disorders” (Bayer Pharmaceuticals Corporation, priority 2003, dated 2007).

What was measured:
[1] = test system: BT474 (human breast carcinoma); assay: In vitro tumor cell proliferation assay (Cell Titer-Glo luminescent cell viability), BT474 cells; format: cell-based; details: BT-474, 72 hours drug exposure, 10% Fetal Bovine Serum, ATP luminescence readout, read-out: IC50 (50% inhibition of cell proliferation)
Method in brief: (§1)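 ATP luminescence (CellTiter-Glo) measured proliferation after 72 h compound exposure at 37 °C, giving IC50 values. Serial dilutions spanning 64 pM–100 μM in 0.1% DMSO were applied one day after plating 2.5×10^3 cells/well in RPMI plus 10% fetal bovine serum.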

[2] = test system: A431cells (human epidermoid carcinoma); assay: In vitro tumor cell proliferation assay (Cell Titer-Glo luminescent cell viability), A431 cells; format: cell-based; details: A-431, 72 h, 72 hours drug exposure, 10% Fetal Bovine Serum, ATP luminescence readout, read-out: IC50 (50% inhibition of cell proliferation)
Method in brief: as §1

| IC50 [1] [µM] | IC50 [2] [µM] | Structure (SMILES) |
| --- | --- | --- |
| < 5 | < 5 | CN(C)[C@@H]1CCN(C(=O)C2CCc3c(sc4ncnc(Nc5cccc(Br)c5)c34)C2)C1 (stereo partly drawn) [Example 60, N-(3-bromophenyl)-7-{[(3R)-3-(dimethylamino)-1-pyrrolidinyl]carbonyl}-5,6,7,8-tetrahydro[1]benzothieno[2,3-d]pyrimidin-4-amine] |
| < 50 | < 50 | CS(=O)(=O)CCNC(=O)CC1CCc2c(sc3ncnc(Nc4ccc(OCc5ccc(F)cc5)c(Cl)c4)c23)C1 (stereo not drawn) [Example 147, 2-[4-({3-chloro-4-[(4-fluorobenzyl)oxy]phenyl}amino)-5,6,7,8-tetrahydro[1]benzothieno[2,3-d]pyrimidin-7-yl]-N-[2-(methylsulfonyl)ethyl]acetamide] |
| < 5 | < 5 | COCCCNCCC1CCc2c(sc3ncnc(Nc4ccc(OCc5ccccn5)c(Cl)c4)c23)C1 (stereo not drawn) [Example 195, N-[3-chloro-4-(pyridin-2-ylmethoxy)phenyl]-7-{2-[(3-methoxypropyl)amino]ethyl}-5,6,7,8-tetrahydro[1]benzothieno[2,3-d]pyrimidin-4-amine] |
| < 5 | < 5 | Fc1cccc(COc2ccc(Nc3ncnc4sc5c(c34)CCC(CCN3CCN(Cc4ccncc4)CC3)C5)cc2Cl)c1 (stereo not drawn) [Example 171, N-{3-chloro-4-[(3-fluorobenzyl)oxy]phenyl}-7-{2-[4-(pyridin-4-ylmethyl)piperazin-1-yl]ethyl}-5,6,7,8-tetrahydro[1]benzothieno[2,3-d]pyrimidin-4-amine] |
| < 5 | < 5 | COCCNCCC1CCc2c(sc3ncnc(Nc4ccc(OCc5cccc(F)c5)c(Cl)c4)c23)C1 (stereo not drawn) [Example 142, N-{3-chloro-4-[(3-fluorobenzyl)oxy]phenyl}-7-{2-[(2-methoxyethyl)amino]ethyl}-5,6,7,8-tetrahydro[1]benzothieno[2,3-d]pyrimidin-4-amine] |
| < 5 | < 5 | CN1CCN(C(=O)CC2CCc3c(sc4ncnc(Nc5ccc(OCc6ccc(F)cc6)c(Cl)c5)c34)C2)CC1 (stereo not drawn) [Example 150, N-{3-chloro-4-[(4-fluorobenzyl)oxy]phenyl}-7-[2-(4-methylpiperazin-1-yl)-2-oxoethyl]-5,6,7,8-tetrahydro[1]benzothieno[2,3-d]pyrimidin-4-amine] |
| < 5 | < 5 | COCCN(C)CCC1CCc2c(sc3ncnc(Nc4ccc(F)c(Cl)c4)c23)C1 (stereo not drawn) [Example 96, N-(3-chloro-4-fluorophenyl)-7-{2-[(2-methoxyethyl)(methyl)amino]ethyl}-5,6,7,8-tetrahydro[1]benzothieno[2,3-d]pyrimidin-4-amine] |
| < 5 | < 5 | Cc1ccc(Oc2ccc(Nc3ncnc4sc5c(c34)CCC(CCN3CCN(C)CC3)C5)cc2C)cn1 (stereo not drawn) [Example 224, N-{3-methyl-4-[(6-methylpyridin-3-yl)oxy]phenyl}-7-[2-(4-methylpiperazin-1-yl)ethyl]-5,6,7,8-tetrahydro[1]benzothieno[2,3-d]pyrimidin-4-amine] |
| < 5 | < 5 | CCNCCC1CCc2c(sc3ncnc(Nc4ccc(OCc5ccccn5)c(Cl)c4)c23)C1 (stereo not drawn) [Example 193, N-[3-chloro-4-(pyridin-2-ylmethoxy)phenyl]-7-[2-(ethylamino)ethyl]-5,6,7,8-tetrahydro[1]benzothieno[2,3-d]pyrimidin-4-amine] |
| < 5 | < 50 | CCOC(=O)C1CCc2c(sc3ncnc(Nc4ccc(Cl)cc4F)c23)C1 (stereo not drawn) [Example 42, Ethyl 4-[(4-chloro-2-fluorophenyl)amino]-5,6,7,8-tetrahydro[1]benzothieno[2,3-d]pyrimidine-7-carboxylate] |
| < 5 | < 50 | Cc1ccc(Oc2ccc(Nc3ncnc4sc5c(c34)CCC(CCN3CCOCC3)C5)cc2C)cn1 (stereo not drawn) [Example 225, N-{3-methyl-4-[(6-methylpyridin-3-yl)oxy]phenyl}-7-(2-morpholin-4-ylethyl)-5,6,7,8-tetrahydro[1]benzothieno[2,3-d]pyrimidin-4-amine] |
| < 50 | < 50 | CCOC(=O)C1CCc2c(sc3ncnc(Nc4ccc(OCc5ccccc5)cc4)c23)C1 (stereo not drawn) [Example 32, Ethyl 4-{[4-(benzyloxy)phenyl]amino}-5,6,7,8-tetrahydro[1]benzothieno[2,3-d]pyrimidine-7-carboxylate] |
| < 5 | < 50 | Cc1ccc(Oc2ccc(Nc3ncnc4sc5c(c34)CCC(CCN3CCCCC3)C5)cc2C)cn1 (stereo not drawn) [Example 236, N-{3-methyl-4-[(6-methylpyridin-3-yl)oxy]phenyl}-7-(2-piperidin-1-ylethyl)-5,6,7,8-tetrahydro[1]benzothieno[2,3-d]pyrimidin-4-amine] |
| < 5 | < 50 | OC1CCN(CCC2CCc3c(sc4ncnc(Nc5ccc6c(cnn6Cc6ccccc6)c5)c34)C2)C1 (stereo not drawn) [Example 237, 1-(2-{4-[(1-benzyl-1H-indazol-5-yl)amino]-5,6,7,8-tetrahydro[1]benzothieno[2,3-d]pyrimidin-7-yl}ethyl)pyrrolidin-3-ol] |
| < 5 | < 50 | CCOC(=O)CC1CCc2c(sc3ncnc(Nc4ccc5c(cnn5Cc5ccccc5)c4)c23)C1 (stereo not drawn) [Example 204, ethyl {4-[(1-benzyl-1H-indazol-5-yl)amino]-5,6,7,8-tetrahydro[1]benzothieno[2,3-d]pyrimidin-7-yl}acetate] |
| < 50 | < 50 | O=C(C1CCc2c(sc3ncnc(Nc4ccc(F)c(Cl)c4)c23)C1)N1CCCCC1 (stereo not drawn) [Example 3, N-(3-chloro-4-fluorophenyl)-7-(1-piperidinylcarbonyl)-5,6,7,8-tetrahydro[1]benzothieno[2,3-d]pyrimidin-4-amine] |
| < 5 | < 5 | CN1CCN(CCC2CCc3c(sc4ncnc(Nc5ccc(OCc6ccc(F)cc6)c(Cl)c5)c34)C2)CC1 (stereo not drawn) [Example 154, N-{3-chloro-4-[(4-fluorobenzyl)oxy]phenyl}-7-[2-(4-methylpiperazin-1-yl)ethyl]-5,6,7,8-tetrahydro[1]benzothieno[2,3-d]pyrimidin-4-amine] |
| < 5 | < 5 | COCCN(C)CCC1CCc2c(sc3ncnc(Nc4cccc(Br)c4)c23)C1 (stereo not drawn) [Example 87, N-(3-bromophenyl)-7-{2-[(2-methoxyethyl)(methyl)amino]ethyl}-5,6,7,8-tetrahydro[1]benzothieno[2,3-d]pyrimidin-4-amine] |
